Where no end group is shown, it is not given here.
Experiments:
Assay type in all cases: in vivo, rat
Sprague-Dawley rats [1] = assay: Hot plate threshold
Method: This test measures the temperature at which point a rat voluntarily removes one of its hindlimbs from the heated surface and either shakes or lick the affected appendage. The temperature of the heated surface is pre-set to the experimentally deduced value of 38° C. and a maximum cutoff value of either 53° C. or 54° C. has been used. Data is expressed either as absolute temperature in degrees C. or as percentage maximal possible effect as described by the formula [formula] (54 is substituted for 53 in the above formula if it is the maximal value.)
(§1) With minimal restraint, peptide GsAF I was injected intrathecally (i.th.) into young (75-150 gram) male Sprague-Dawley rats (Charles Rivers Laboratories, Wilmington, Mass.) into the spinal subarachnoid space between lumbar spinous processes L4 and L5 using 10 microliter Hamilton syringes equipped with 3/8 inch by 28G needles. Dosing levels were based upon concentrations deduced from ultraviolet absorbance values at 280 nm using an extinction coefficient of 18710. Injection volume was 10 microliters. The injection vehicle was saline or 0.1 %bovine serum albumin(BSA)/saline. The rats were pretreated with GsAF I 30 minutes prior to exposure to heat.
as §1, with “GsAF II” for “GsAF I”, “or 0.1% bovine” for “or 0.1 %bovine”, “GsAF II 15” for “GsAF I 30”

Sprague-Dawley rats [2] = assay: von Frey filament threshold
Text: In this test filaments of increasing thickness are applied to the dorsal surface of a hindlimb until the rat either voluntarily removes the appendage with a forcible escape movement or vocalizes. The thickness of the filaments are arbitrarily labelled with a value which can be transformed into a grams force reading according to the following equation: [formula] Data are expressed either as absolute gram force values or a percentage of the maximum possible effect (MPE) as described in the following equation: [formula]

Sprague-Dawley rats [3] = assay: Formalin pain test; conditions: for Acute Flinches, % control / Acute Flinches, absolute level: 0-5 minutes post formalin; for Tonic Flinches, % control / Tonic Flinches, absolute level / Tonic Licking, % control / Tonic Licking, absolute level: 20-35 minutes post formalin
Method: The noxious stimulus for this test is the sub-cutaneous injection of a 5% solution of formalin into the dorsal surface of one of the hindlimbs of the animal. Motor activity indices used in this test are 1) the total time spent licking that appendage and 2) the total number of flinching/shaking responses of the affected appendage. Data collection is initiated immediately upon injection of the formalin solution into the limb. The acute phase response is defined by the time interval of 0-5 minutes post formalin injection. The tonic phase response is defined by the interval of 20-35 minutes post formalin injection Data collection is done in a computerized format. Expression of the data is done using either absolute values or as percent control which is defined by the level of response following injection of saline vehicle.
as §1, with “0.1% bovine” for “0.1 %bovine”, “injection with the formalin solution.” for “exposure to heat.”
as §1, with “GsAF II” for “GsAF I”, “nm as stated previously. Based upon a mass” for “nm using an extinction coefficient”, “of 3980 Da, 583 pmoles corresponds to 2.3 micrograms of GsAF II, and 2.33 nmoles corresponds to 9.3 micrograms of GsAF II.” for “of 18710.”, “0.1 % bovine” for “0.1 %bovine”, “GsAF II 15” for “GsAF I 30”, “to injection with formalin.” for “to exposure to heat.”
In addition to the above analyses, 180 pmoles (666 nanograms) of GsAF I was administered 5 minutes after injection of 5% formalin and the tonic phase responses were recorded as described previously. The highly efficacious activity of GsAF I was retained. Tonic flinch response was inhibited 86% (i.e. 14% of control) and tonic lick duration was reduced 91 % (i.e. 9% of control). This property has only been reported for strong analgesic compounds that interact with μ-opioid receptors.

[4] = 583 pmoles i.th., 15 minutes pretreatment
[5] = 2.33 nmoles i.th., 15 minutes pretreatment
[6] = 1.8 pmoles i.th., 30 minutes pretreatment
[7] = 18 pmoles i.th., 30 minutes pretreatment
[8] = 180 pmoles (666 nanograms) administered 5 minutes after injection of 5% formalin
[9] = 180 pmoles i.th., 30 minutes pretreatment

YCQKWMWTCDEERKCCEGLVCRLWCKKKIEW (cysteine pairing not given here) [GsAF II]
MPE, hot plate threshold (Sprague-Dawley rats [1]; 2.33 nanomole (9.27 micrograms) i.th., 15 minutes pretreatment, all animals): 100 % MPE | motor coordination problems (Sprague-Dawley rats [1]; 2.33 nanomole and 583 picomoles i.th.): No motor coordination problems were witnessed | average MPE, hot plate threshold (Sprague-Dawley rats [1]; 583 picomoles (2.32 micrograms) i.th., 15 minutes pretreatment): 59% | MPE, von Frey threshold (Sprague-Dawley rats [2]; 2.33 nanomole (9.27 micrograms), 30 minutes post injection): 83% | rats demonstrating maximal analgesic activity (100% MPE), von Frey (Sprague-Dawley rats [2]; 2.33 nanomole (higher dose), 30 minutes post injection): 75% | MPE, von Frey threshold (Sprague-Dawley rats [2]; 583 picomole (2.32 micrograms), 30 minutes post injection): 48% | Acute Flinches, % control (Sprague-Dawley rats [3]; [4]): 41% | Acute Flinches, absolute level (Sprague-Dawley rats [3]; [4]): 6.8 | Tonic Flinches, % control (Sprague-Dawley rats [3]; [4]): 9.5% | Tonic Flinches, absolute level (Sprague-Dawley rats [3]; [4]): 8.2 | Tonic Licking, % control (Sprague-Dawley rats [3]; [4]): 8.2% | Tonic Licking, absolute level (Sprague-Dawley rats [3]; [4]): 7.8 s | Acute Flinches, % control (Sprague-Dawley rats [3]; [5]): 19% | Acute Flinches, absolute level (Sprague-Dawley rats [3]; [5]): 3.25 | Tonic Flinches, % control (Sprague-Dawley rats [3]; [5]): 1.4% | Tonic Flinches, absolute level (Sprague-Dawley rats [3]; [5]): 1.2 | Tonic Licking, % control (Sprague-Dawley rats [3]; [5]): 0% | Tonic Licking, absolute level (Sprague-Dawley rats [3]; [5]): 0 s

Tyr-Cys-Gln-Lys-Trp-Leu-Trp-Thr-Cys-Asp-Ser-Glu-Arg-Lys-Cys-Cys-Glu-Asp-Met-Val-Cys-Arg-Leu-Trp-Cys-Lys-Lys-Arg-Leu-NH2 (YCQKWLWTCDSERKCCEDMVCRLWCKKRL-NH2; cysteine pairing not given here) [GsAF I]
MPE, hot plate threshold (Sprague-Dawley rats [1]; 18 picomoles (6.6 nanograms) i.th., one hour pretreatment): 24 % MPE | activity in hot plate threshold (Sprague-Dawley rats [1]; 18 picomoles i.th., 30 minute pretreatment): loss of significant activity | adverse motor effects (Sprague-Dawley rats [1]; 180 and 18 picomoles i.th.): No adverse motor effects were evident | MPE, hot plate threshold (Sprague-Dawley rats [1]; 180 picomole (66 nanograms) i.th., one hour pretreatment): 91 % MPE | MPE, hot plate threshold (Sprague-Dawley rats [1]; 180 picomoles (666 nanograms) i.th., 30 minute pretreatment): 70 % MPE | MPE, von Frey threshold (Sprague-Dawley rats [2]; 18 picomole (6.6 nanograms), one hour pretreatment): 22 % MPE | MPE, von Frey threshold (Sprague-Dawley rats [2]; 18 picomoles (66 nanograms), 30 minutes post injection): 24 % MPE | confounding side effects (Sprague-Dawley rats [2]; 180 and 18 picomoles): No confounding side effects were present | MPE, von Frey threshold (Sprague-Dawley rats [2]; 180 picomole, one hour pretreatment): 100 % MPE | MPE, von Frey threshold (Sprague-Dawley rats [2]; 180 picomoles (666 nanograms), 30 minutes post injection): 93 % MPE | Acute Flinches, % control (Sprague-Dawley rats [3]; [6]): 28% | Acute Flinches, absolute level (Sprague-Dawley rats [3]; [6]): 12 | Tonic Flinches, % control (Sprague-Dawley rats [3]; [6]): 32% | Tonic Flinches, absolute level (Sprague-Dawley rats [3]; [6]): 44.3 | Tonic Licking, % control (Sprague-Dawley rats [3]; [6]): 46% | Tonic Licking, absolute level (Sprague-Dawley rats [3]; [6]): 84.3 s | Acute Flinches, % control (Sprague-Dawley rats [3]; [7]): 20% | Acute Flinches, absolute level (Sprague-Dawley rats [3]; [7]): 8.5 | Tonic Flinches, % control (Sprague-Dawley rats [3]; [7]): 21% | Tonic Flinches, absolute level (Sprague-Dawley rats [3]; [7]): 29.5 | Tonic Licking, % control (Sprague-Dawley rats [3]; [7]): 8.4% | Tonic Licking, absolute level (Sprague-Dawley rats [3]; [7]): 15.3 s | Tonic flinch response, % of control (Sprague-Dawley rats [3]; [8]): 14 % of control | Tonic flinch response, inhibition (Sprague-Dawley rats [3]; [8]): 86% | tonic lick duration, % of control (Sprague-Dawley rats [3]; [8]): 9 % of control | tonic lick duration, reduction (Sprague-Dawley rats [3]; [8]): 91% | Acute Flinches, % control (Sprague-Dawley rats [3]; [9]): 8.9% | Acute Flinches, absolute level (Sprague-Dawley rats [3]; [9]): 3.8 | Tonic Flinches, % control (Sprague-Dawley rats [3]; [9]): 3.0% | Tonic Flinches, absolute level (Sprague-Dawley rats [3]; [9]): 4.3 | Tonic Licking, % control (Sprague-Dawley rats [3]; [9]): 0% | Tonic Licking, absolute level (Sprague-Dawley rats [3]; [9]): 0 s

From patent publication US5877026A, “Analgesic peptides from venom of Grammostola spatulata and use thereof” (priority 1998, dated 1999)
